“Also recorded” adds a separate entry of the source.

The results in this text go back to patent publication US20220389515A1, “USE OF BIOMARKERS TO PREDICT CLINICAL SENSITIVITY TO 2-(4-CHLOROPHENYL)-N-((2-(2,6-DIOXOPIPERIDIN-3-YL)-1-OXOISOINDOLIN-5-YL)METHYL)-2,2-DIFLUOROACETAMIDE” (priority 2019, published 2022).

Assay [1] deals with T1, cereblon to GSPT1 (Homo sapiens, UniProt P15170+Q96SW2, W386A/Y384A).
T1 construct: expressed in transfected cells; host or cells: 293FT CRBN-/- cells (transient transfection; cell extracts, anti-HA immunoprecipitation)
The experiment in a line: Cereblon binding assay with cell extracts (anti-HA immunoprecipitation), GSPT1. The settings on record: FLAG-HA-YWAA mutant. The text has this: (§1) FIG. 3A illustrates FLAG-HA tagged cereblon wild-type (FLAG-HA-CRBN) or Y384A/W386A mutant (FLAG-HA-YWAA) produced in 293FT CRBN−/− cells was used to capture V5 tagged GSPT1 (GSPT1-V5) and V5 tagged IKZF1 (IKZF1-V5) transiently expressed in 293FT CRBN−/− cells. […] FIG. 3B illustrates the surface representation of GSPT1 in complex with cereblon, DDB1 and Compound D, with DDB1 shown in purple, cereblon in blue, and GSPT1 in orange. The position of Compound D is shown with a white arrow. FIG. 3C illustrates the Fo-Fc omit electron density (green mesh) for Compound D (yellow sticks) contoured at 3.06. […] Hydrogen bond interactions between cereblon and the GPST1 β-hairpin are shown as yellow dashes. FIG. 3E illustrates details of the binding interface between cereblon and GSPT1. Compound D is represented as yellow sticks. Predicted polar interactions between Compound D and cereblon are shown as yellow dashes. FIG. 3F illustrates the immunoblot analysis of U937 parental cells or cells stably expressing HA-GSPT1-G575N. Cells were treated with DMSO or Compound D at the indicated concentrations. FIGS. 3G and 311 illustrate the immunoblot analysis (left panel) and cell proliferation (right panel) of MOLM-13 (FIG. 3G) and OCI-AML2 (FIG. 311) parental cells and cells stably expressing HA tagged GSPT1-G575N. Cells were treated with DMSO or Compound D at indicated concentrations.

The target of assay [2] is T2, cereblon to GSPT1 (Homo sapiens, UniProt P15170+Q96SW2).
T2 construct: expressed in transfected cells; host or cells: 293FT CRBN-/- cells (transient transfection; cell extracts, anti-HA immunoprecipitation)
The assay is described as above. The settings on record: wild-type FLAG-HA-CRBN; compound added directly into the binding assay.
Source text: as §1

For assay [3], the target named is T3, GSPT1 (Homo sapiens, UniProt P15170+Q96SW2).
T3 construct: endogenous in cells; host or cells: KG-1 (TMT proteomics); KG1, U937 / U937-Cas9, MOLM-13, OCI-AML2 (immunoblots)
Description: Tandem mass tag (TMT) quantitative mass spectrometry of the global proteome in KG-1. Format: cell-based. Particulars: 0.1 μM, 4 hours. The protocol:
FIG. 2A illustrates the volcano plot of differentially abundant proteins in response to Compound D treatment relative to the DMSO control. KG1 cells were treated with DMSO or 100 nM Compound D for 4 hours and subjected to TMT proteomics analysis. The X-axis denotes the log 2-fold change of Compound D versus the DMSO control for each protein. P-values were corrected for multiple hypothesis testing using the Benjamini-Hoschberg method to arrive at an adjusted-P-value (adj-P, also known as a false discovery rate). The y-axis denotes the −log 10 (adj-P) values indicating statistical significance such that proteins lying above the dotted red line are statistically significant findings with adjusted P-values<0.05. FIG. 2B illustrates the immunoblot analysis of KG1 and U937 cells treated with DMSO or Compound D for 4 hours. Where indicated, cells were pretreated with Bortezomib or MLN4924 for 30 minutes. […]
(§2) Like all other cereblon modulators, Compound D contains a glutarimide ring (FIG. 1A) that can bind cereblon and redirect it to target neosubstrates for degradation. Thus, the effect of Compound D on the global proteome in AML cell line KG-1 was assessed using tandem mass tag (TMT) quantitative mass spectrometry.

Assay [4] concerns the target T4, GSPT1 (Homo sapiens, UniProt P15170).
T4 construct: endogenous in cells; host or cells: KG-1 (TMT proteomics); KG1, U937 / U937-Cas9, MOLM-13, OCI-AML2 (immunoblots)
Description: Immunoblot analysis of Compound D-induced GSPT1 degradation in AML cells. In kind it is cell-based. The protocol:
(§3) FIG. 2A illustrates the volcano plot of differentially abundant proteins in response to Compound D treatment relative to the DMSO control. KG1 cells were treated with DMSO or 100 nM Compound D for 4 hours and subjected to TMT proteomics analysis. The X-axis denotes the log 2-fold change of Compound D versus the DMSO control for each protein. P-values were corrected for multiple hypothesis testing using the Benjamini-Hoschberg method to arrive at an adjusted-P-value (adj-P, also known as a false discovery rate). The y-axis denotes the −log 10 (adj-P) values indicating statistical significance such that proteins lying above the dotted red line are statistically significant findings with adjusted P-values<0.05. FIG. 2B illustrates the immunoblot analysis of KG1 and U937 cells treated with DMSO or Compound D for 4 hours. Where indicated, cells were pretreated with Bortezomib or MLN4924 for 30 minutes. FIGS. 2C and 2D illustrate the immunoblot analysis (FIG. 2C) and cell proliferation (FIG. 2D) of U937-Cas9 parental cells or cells stably transduced with lentiviral vectors expressing a non-targeting sgRNA (sgNT-1), a sgRNA targeting a non-coding region (sgNC-8), or a sgRNA targeting CRBN(sgCRBN-8). Cells were treated with DMSO or Compound D at indicated concentrations. FIGS. 2E and 2F illustrate the immunoblot analysis (left panel) and cell proliferation (right panel) of MOLM-13 (FIG. 2E) and OCI-AML2 (FIG. 2F) parental and CRBN−/− cells. Cells were treated with DMSO or Compound D at indicated concentrations. Results shown in all figure panels are representative of three biological replicates. Data in FIGS. 2D, 2E (right panel), and 2F (right panel) are shown as mean±SD, n=3 technical replicates.
(§4) FIG. 3A illustrates FLAG-HA tagged cereblon wild-type (FLAG-HA-CRBN) or Y384A/W386A mutant (FLAG-HA-YWAA) produced in 293FT CRBN−/− cells was used to capture V5 tagged GSPT1 (GSPT1-V5) and V5 tagged IKZF1 (IKZF1-V5) transiently expressed in 293FT CRBN−/− cells. […] FIG. 3B illustrates the surface representation of GSPT1 in complex with cereblon, DDB1 and Compound D, with DDB1 shown in purple, cereblon in blue, and GSPT1 in orange. The position of Compound D is shown with a white arrow. FIG. 3C illustrates the Fo-Fc omit electron density (green mesh) for Compound D (yellow sticks) contoured at 3.06. FIG. 3D illustrates GSPT1's interaction with cereblon is mediated by a β-hairpin loop. Hydrogen bond interactions between cereblon and the GPST1 β-hairpin are shown as yellow dashes. FIG. 3E illustrates details of the binding interface between cereblon and GSPT1. Compound D is represented as yellow sticks. Predicted polar interactions between Compound D and cereblon are shown as yellow dashes. FIG. 3F illustrates the immunoblot analysis of U937 parental cells or cells stably expressing HA-GSPT1-G575N. Cells were treated with DMSO or Compound D at the indicated concentrations. FIGS. 3G and 311 illustrate the immunoblot analysis (left panel) and cell proliferation (right panel) of MOLM-13 (FIG. 3G) and OCI-AML2 (FIG. 311) parental cells and cells stably expressing HA tagged GSPT1-G575N. Cells were treated with DMSO or Compound D at indicated concentrations.
as §2
(§5) Specifically, U937 cells stably expressing Cas9 were infected with lentiviral vectors constitutively expressing RFP and non-targeting or non-coding sgRNA (sgNT) controls, or sgRNAs targeting TSC1 or TSC2. Infected cells were selected with 1 μg/ml puromycin. […]
On the technique in general: A western blot detects proteins with antibodies after separation by electrophoresis.

Assay [5] addresses T5, GSPT1 (Homo sapiens, UniProt P15170, G437N).
T5 construct: endogenous in cells; host or cells: KG-1 (TMT proteomics); KG1, U937 / U937-Cas9, MOLM-13, OCI-AML2 (immunoblots)
Described as above. In kind it is cell-based. The settings on record: U937, MOLM-13, OCI-AML2 stably expressing HA-GSPT1-G575N. On the procedure: as §3, §4, §2, §5

T4 sequence (P15170 1-637 isoform P15170-3): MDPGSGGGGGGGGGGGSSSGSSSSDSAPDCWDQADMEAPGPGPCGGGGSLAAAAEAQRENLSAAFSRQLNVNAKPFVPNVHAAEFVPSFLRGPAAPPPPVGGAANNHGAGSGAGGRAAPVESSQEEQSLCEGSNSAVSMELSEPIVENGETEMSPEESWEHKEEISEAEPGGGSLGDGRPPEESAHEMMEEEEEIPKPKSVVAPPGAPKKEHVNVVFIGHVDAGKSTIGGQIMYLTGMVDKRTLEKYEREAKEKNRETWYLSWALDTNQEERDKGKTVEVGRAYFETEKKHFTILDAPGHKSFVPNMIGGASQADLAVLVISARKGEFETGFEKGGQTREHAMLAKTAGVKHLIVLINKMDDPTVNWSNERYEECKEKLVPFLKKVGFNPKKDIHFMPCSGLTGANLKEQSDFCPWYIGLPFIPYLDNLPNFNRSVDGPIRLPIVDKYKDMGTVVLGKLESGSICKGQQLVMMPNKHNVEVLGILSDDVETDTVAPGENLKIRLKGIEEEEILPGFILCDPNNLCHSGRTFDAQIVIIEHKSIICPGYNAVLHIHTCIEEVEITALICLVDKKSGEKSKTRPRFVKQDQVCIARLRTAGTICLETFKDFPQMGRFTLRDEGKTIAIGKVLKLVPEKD
T4 sequence (Q96SW2 whole entry partner): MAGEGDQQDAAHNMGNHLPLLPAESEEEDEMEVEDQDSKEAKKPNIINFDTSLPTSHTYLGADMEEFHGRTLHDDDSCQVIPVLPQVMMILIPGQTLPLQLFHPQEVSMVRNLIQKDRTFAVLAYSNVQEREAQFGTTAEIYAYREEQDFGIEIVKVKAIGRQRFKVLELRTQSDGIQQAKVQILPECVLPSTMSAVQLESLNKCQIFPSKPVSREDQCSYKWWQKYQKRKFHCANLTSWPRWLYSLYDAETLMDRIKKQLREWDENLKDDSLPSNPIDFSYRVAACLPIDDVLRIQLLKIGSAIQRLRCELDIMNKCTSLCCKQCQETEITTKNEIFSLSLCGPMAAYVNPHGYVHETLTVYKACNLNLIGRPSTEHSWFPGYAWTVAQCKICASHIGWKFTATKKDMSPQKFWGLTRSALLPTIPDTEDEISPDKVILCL
T4 sequence (Q16531 2-1140 partner): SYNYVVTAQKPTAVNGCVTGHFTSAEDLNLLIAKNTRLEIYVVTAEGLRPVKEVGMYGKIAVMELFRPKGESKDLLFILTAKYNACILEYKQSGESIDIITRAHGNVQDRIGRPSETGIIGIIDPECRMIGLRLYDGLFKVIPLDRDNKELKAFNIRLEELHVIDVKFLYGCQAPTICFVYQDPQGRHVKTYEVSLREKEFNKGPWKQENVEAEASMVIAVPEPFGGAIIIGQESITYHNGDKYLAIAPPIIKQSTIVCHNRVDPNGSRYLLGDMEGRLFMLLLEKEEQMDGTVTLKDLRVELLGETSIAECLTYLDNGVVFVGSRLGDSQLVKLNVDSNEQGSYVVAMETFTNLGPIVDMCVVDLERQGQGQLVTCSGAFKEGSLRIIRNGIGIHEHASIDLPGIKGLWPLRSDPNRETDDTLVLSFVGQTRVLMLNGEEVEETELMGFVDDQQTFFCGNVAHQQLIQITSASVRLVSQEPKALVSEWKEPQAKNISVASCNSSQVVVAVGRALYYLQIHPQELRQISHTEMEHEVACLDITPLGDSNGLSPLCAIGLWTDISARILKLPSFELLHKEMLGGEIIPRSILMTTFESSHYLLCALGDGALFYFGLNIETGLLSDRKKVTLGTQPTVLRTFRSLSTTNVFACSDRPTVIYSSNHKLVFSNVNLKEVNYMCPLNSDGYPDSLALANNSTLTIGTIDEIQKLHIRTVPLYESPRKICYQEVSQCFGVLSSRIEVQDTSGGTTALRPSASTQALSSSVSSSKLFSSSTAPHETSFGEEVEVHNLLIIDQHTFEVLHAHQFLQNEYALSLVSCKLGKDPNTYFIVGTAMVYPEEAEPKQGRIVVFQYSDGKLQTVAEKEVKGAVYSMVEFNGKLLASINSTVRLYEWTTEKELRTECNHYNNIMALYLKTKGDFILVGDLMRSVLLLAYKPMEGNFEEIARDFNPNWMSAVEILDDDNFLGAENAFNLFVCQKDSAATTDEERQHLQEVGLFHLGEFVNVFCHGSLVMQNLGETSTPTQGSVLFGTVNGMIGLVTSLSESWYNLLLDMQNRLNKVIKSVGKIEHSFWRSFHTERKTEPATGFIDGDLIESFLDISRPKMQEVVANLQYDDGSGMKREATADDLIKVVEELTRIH
T3 sequence (P15170 1-637 isoform P15170-3): as the sequence (P15170 1-637 isoform P15170-3) above
T3 sequence (Q96SW2 whole entry): as the sequence (Q96SW2 whole entry partner) above
T3 sequence (Q16531 whole entry partner): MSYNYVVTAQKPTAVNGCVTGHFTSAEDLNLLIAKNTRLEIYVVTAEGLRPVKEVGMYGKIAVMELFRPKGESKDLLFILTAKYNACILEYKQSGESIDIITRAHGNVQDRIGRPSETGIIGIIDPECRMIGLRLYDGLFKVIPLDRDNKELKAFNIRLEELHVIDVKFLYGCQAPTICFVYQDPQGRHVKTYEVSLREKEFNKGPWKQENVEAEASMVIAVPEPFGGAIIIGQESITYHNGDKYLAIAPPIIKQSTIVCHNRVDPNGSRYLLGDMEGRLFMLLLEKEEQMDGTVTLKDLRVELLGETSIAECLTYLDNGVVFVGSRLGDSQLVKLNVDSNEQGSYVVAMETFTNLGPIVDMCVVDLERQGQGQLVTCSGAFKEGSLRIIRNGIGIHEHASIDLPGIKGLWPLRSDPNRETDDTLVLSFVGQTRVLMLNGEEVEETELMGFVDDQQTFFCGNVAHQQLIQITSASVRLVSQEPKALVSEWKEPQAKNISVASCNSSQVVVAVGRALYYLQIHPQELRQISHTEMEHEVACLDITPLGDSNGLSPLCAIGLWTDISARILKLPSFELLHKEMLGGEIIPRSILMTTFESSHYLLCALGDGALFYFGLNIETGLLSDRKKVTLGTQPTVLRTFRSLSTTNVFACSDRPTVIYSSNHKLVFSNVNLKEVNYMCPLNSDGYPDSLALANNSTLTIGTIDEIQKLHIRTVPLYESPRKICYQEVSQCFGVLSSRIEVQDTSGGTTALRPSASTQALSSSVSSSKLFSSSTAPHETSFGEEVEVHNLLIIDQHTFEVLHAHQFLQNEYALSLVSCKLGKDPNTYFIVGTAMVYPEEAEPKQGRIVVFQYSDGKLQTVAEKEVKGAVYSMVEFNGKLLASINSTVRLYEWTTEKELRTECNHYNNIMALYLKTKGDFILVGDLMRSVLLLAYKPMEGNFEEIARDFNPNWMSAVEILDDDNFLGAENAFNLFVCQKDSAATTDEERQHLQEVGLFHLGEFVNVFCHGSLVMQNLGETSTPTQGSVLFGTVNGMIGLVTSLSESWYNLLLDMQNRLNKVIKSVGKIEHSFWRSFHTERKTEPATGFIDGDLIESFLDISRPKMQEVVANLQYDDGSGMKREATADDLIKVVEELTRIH
T5 sequence (P15170 1-637 isoform P15170-3 G575N): as the sequence (P15170 1-637 isoform P15170-3) above, with G575N counted along it
T5 sequence (Q96SW2 whole entry partner): as the sequence (Q96SW2 whole entry partner) above
T5 sequence (Q16531 2-1140 partner): as the sequence (Q16531 2-1140 partner) above
T1 sequence (Q96SW2 whole entry Y384A/W386A): as the sequence (Q96SW2 whole entry partner) above, with Y384A, W386A counted along it
T1 sequence (P15170 1-637 isoform P15170-3, stated change not applied): as the sequence (P15170 1-637 isoform P15170-3) above
T2 sequence (Q96SW2 whole entry): as the sequence (Q96SW2 whole entry partner) above
T2 sequence (P15170 1-637 isoform P15170-3): as the sequence (P15170 1-637 isoform P15170-3) above

In the case of `O=C1CCC(N2Cc3cc(CNC(=O)C(F)(F)c4ccc(Cl)cc4)ccc3C2=O)C(=O)N1` (stereo not shown) [Compound D, 2-(4-chlorophenyl)-N-((2-(2,6-dioxopiperidin-3-yl)-1-oxoisoindolin-5-yl)methyl)-2,2-difluoroacetamide], the “binding of cereblon mutant Y384A and W386A to GSPT1” value at cereblon to GSPT1 [1] is on record as “completely abolished the binding of cereblon”. Moreover, the “binding of cereblon to GSPT1” value on cereblon to GSPT1 [2] is given as “promoted the binding of cereblon to GSPT1”. On GSPT1 [3], the GSPT1 protein abundance entry is “significant reduction of GSPT1 protein abundance” and the “effect on the rest of the proteome” value is reported as “minimal effect on the rest of the proteome”. The “downregulation of GSPT1 by Compound D under bortezomib, MLN4924 or knockout of CRBN” value on GSPT1 [4] (KG1, U937, MOLM-13, OCI-AML2, pretreatment 30 minutes) is listed as “completely blocked”. The “Compound D induced GSPT1 degradation after ILF2 or ILF3 knockout” value at GSPT1 [4] (U937, OCI-AML2) was “drastically reduced cereblon protein levels, and hence Compound D-induced GSPT1 degradation; also recorded: attenuated Compound D induced GSPT1 degradation”. The “GSPT1 expression, cotreatment with cycloheximide” value at GSPT1 [4] (U937-Cas9 parental) is given as “downregulated GSPT1 expression”. On GSPT1 [4] (U937 TSC1-/- and TSC2-/-), the “GSPT1 expression, cotreatment with cycloheximide, TSC1 or TSC2 loss” value is “largely abrogated this effect”. For the same compound, at GSPT1 [4] (U937 and OCI-AML2), the “Compound D induced GSPT1 degradation after TSC1 or TSC2 knockout” value is “partially blocked GSPT1 degradation induced by Compound D; also recorded: Attenuated Compound D induced GSPT1 degradation”. For the same compound, the “Compound D-induced degradation of GSPT1-G575N” value at GSPT1 [5] is listed as “conferred complete resistance to Compound D-induced degradation”.
